Assay results taken from ChEMBL document CHEMBL3217543, “Synthesis and biological activity evaluation of N-protected isatin derivatives as inhibitors of ICAM-1 expression on human endothelial cells” (Medchemcomm, 2011).

How the values were obtained:
HUVEC [1] = experiment: Antiinflammatory activity in HUVEC assessed as inhibition of TNFalpha-induced ICAM1 expression at 100 uM pretreated for 2 hrs followed by TNFalpha challenge measured after 16 hrs by cell-ELISA; format: functional; conditions: Homo sapiens
HUVEC [2] = experiment: Antiinflammatory activity in HUVEC assessed as inhibition of TNFalpha-induced ICAM1 expression pretreated for 2 hrs followed by TNFalpha challenge measured after 16 hrs by cell-ELISA; format: functional, cell-based; conditions: Homo sapiens
[3] = Cytotoxicity against HUVEC assessed as cell viability at 100 uM after 24 hrs by MTT assay; format: cell-based; conditions: human, HUVEC cells; read-out: Activity
HUVEC [4] = experiment: Antiinflammatory activity in HUVEC assessed as inhibition of TNFalpha-induced ICAM1 expression at 100 uM pre-treated before TNFalpha addition by cell-ELISA; format: functional, cell-based; conditions: Homo sapiens, TDE = time-dependent effect
HUVEC [5] = experiment: Antiinflammatory activity in HUVEC assessed as inhibition of TNFalpha-induced ICAM1 expression preincubated for 0.5 to 6 hrs followed by TNFalpha challenge measured after 4 hrs by immunostaining assay; format: functional, cell-based; conditions: Homo sapiens
HUVEC [6] = experiment: Antiinflammatory activity in HUVEC assessed as inhibition of LPS-induced ICAM1 expression by cell-ELISA; format: functional, cell-based; conditions: Homo sapiens
HUVEC [7] = experiment: Antiinflammatory activity in HUVEC assessed as inhibition of TNFalpha-induced ICAM1 expression measured after 6 hrs by FACS flow cytometry; format: functional, cell-based; conditions: Homo sapiens

| Compound | inhibition at 100 µM (HUVEC [1]) [%] | IC50 (HUVEC [2]) [µM] | viability at 24 h, 100 µM [3] [%] | inhibition (HUVEC [1]) | inhibition (HUVEC [4]) | IC50 (HUVEC [5]) [mM] | IC50 (HUVEC [6]) [µM] | IC50 (HUVEC [7]) [mM] |
| --- | --- | --- | --- | --- | --- | --- | --- | --- |
| CCOC(=O)/C=C1/C(=O)N(CC(=O)OC)c2ccccc21 | 58 | 70 | 97 |  |  |  |  |  |
| CCOC(=O)/C=C1/C(=O)N(CC(=O)OC)c2ccc(Br)cc21 | 81 | 25 | 99 |  |  |  |  |  |
| CCOC(=O)/C=C1/C(=O)Nc2ccc(Br)cc21 | 58 | 100 | 97 |  |  |  |  |  |
| CCOC(=O)/C=C1/C(=O)N(C(=O)OC)c2ccc(Br)cc21 | 88 | 25 | 98 |  |  |  |  |  |
| CCOC(=O)/C=C1/C(=O)N(CC(=O)OCC)c2ccc(Cl)cc21 | 74 | 25 | 96 |  |  |  |  |  |
| CCOC(=O)/C=C1/C(=O)N(CC(=O)OCC)c2ccc(Br)cc21 | 93 | 10 | 97 | Dose-dependent effect | tde |  |  |  |
| CCOC(=O)/C=C1/C(=O)N(CC(=O)OCC)c2ccc(F)cc21 | 63 | 40 | 97 |  |  |  |  |  |
| CCOC(=O)/C=C1/C(=O)N(C(=O)OC)c2ccc(Cl)cc21 | 77 | 40 | 96 |  |  |  |  |  |
| CCOC(=O)/C=C1/C(=O)N(CC(=O)OC)c2ccc(F)cc21 | 52 | 75 | 96 |  |  |  |  |  |
| CC(=O)N[C@@H](CS)C(=O)O [ACETYLCYSTEINE] |  |  |  |  |  | 10 |  |  |
| O=C(O)Cc1ccccc1Nc1c(Cl)cccc1Cl [DICLOFENAC] |  |  |  |  |  |  | 750 |  |
| CCOC(=O)/C=C1/C(=O)N(C(=O)OC)c2ccc(F)cc21 | 61 | 70 | 97 |  |  |  |  |  |
| CCOC(=O)/C=C1/C(=O)Nc2ccccc21 | 40 | > 100 | 96 |  |  |  |  |  |
| CCOC(=O)/C=C1/C(=O)N(C(=O)OCC)c2ccc(Cl)cc21 | 83 | 30 | 97 |  |  |  |  |  |
| CCOC(=O)/C=C1/C(=O)N(C(=O)OCC)c2ccc(F)cc21 | 72 | 53 | 96 |  |  |  |  |  |
| CCOC(=O)/C=C1/C(=O)N(CC(=O)OC)c2ccc(Cl)cc21 | 67 | 40 | 97 |  |  |  |  |  |
| CCOC(=O)/C=C1/C(=O)Nc2ccc(F)cc21 | 31 | > 100 | 95 |  |  |  |  |  |
| CC(=O)Oc1ccccc1C(=O)O [ASPIRIN] |  |  |  |  |  |  |  | 5 |
| CCOC(=O)/C=C1/C(=O)N(C(=O)OCC)c2ccccc21 | 66 | 50 | 95 |  |  |  |  |  |
| CCOC(=O)/C=C1/C(=O)N(C(=O)OCC)c2ccc(Br)cc21 | 91 | 15 | 98 |  |  |  |  |  |
| CCOC(=O)/C=C1/C(=O)N(C(=O)OC)c2ccccc21 | 57 | 78 | 98 |  |  |  |  |  |
| CCOC(=O)/C=C1/C(=O)N(CC(=O)OCC)c2ccccc21 | 74 | 55 | 98 |  |  |  |  |  |
| CCOC(=O)/C=C1/C(=O)Nc2ccc(Cl)cc21 | 56 | 100 | 96 |  |  |  |  |  |
